The values that follow come from ChEMBL document CHEMBL4715710, “Discovery, synthesis, and structure-activity relationships of 20S-dammar-24-en-2α,3β,12β,20-tetrol (GP) derivatives as a new class of AMPKα2β1γ1 activators” (Bioorg Med Chem, 2016).

Series [1] can be described thus: Activation of human recombinant AMPK alpha2/beta1/gamma1 using substrate-1 peptide as substrate incubated for 45 mins in presence of ATP by HTRF assay.
The species entered for series [2] is Homo sapiens. As to the kind of experiment: Activation of human recombinant AMPK alpha2/beta1/gamma1 using substrate-1 peptide as substrate incubated for 45 mins in presence of ATP by HTRF assay relative to negative control.
Series [3] relates to HepG2. As to the kind of experiment: Activation of AMPK in human HepG2 cells assessed as induction of AMPK phosphorylation at alpha subunit at 2.5 to 20 uM measured after 1 hr by Western blot analysis. It is filed as cell-based. The note with it: filed as activator, dose 2.5-20 µM.
Series [4] concerns HepG2. As to the kind of experiment: Activation of AMPK in human HepG2 cells assessed as induction of ACC phosphorylation at Ser79 residue at 2.5 to 20 uM measured after 1 hr by Western blot analysis. It is filed as cell-based. Conditions: filed as activator, dose 2.5-20 µM.
The subject of series [5] is L6. As to the kind of experiment: Effect on mitochondrial membrane potential in rat L6 cells at 5 to 40 uM measured after 1 hr by JC-1 staining based assay. It is filed as functional, cell-based. Conditions: dose 5-40 µM.
Series [6] can be described thus: Inhibition of gluconeogenesis in C57/BL6 mouse primary hepatocytes at 10 to 20 uM measured after 6 hrs relative to control. Conditions: dose 10-20 µM. It is filed as functional, Hepatocyte.
Series [7] relates to Syrian golden hamster. As to the kind of experiment: Antidyslipidemic activity against HFHC diet-induced hyperlipidemia in Golden Syrian hamster model assessed as decrease in total cholesterol level at 100 mg/kg, po bid via gavage administered for 2 weeks and measured after 28 days by automated chemistry analyzer. It is filed as functional, organism-based. Conditions: Mesocricetus auratus.

For series [8], the system named is Syrian golden hamster. As to the kind of experiment: Antidyslipidemic activity against HFHC diet-induced hyperlipidemia in Golden Syrian hamster model assessed as decrease in low density lipoprotein cholesterol at 100 mg/kg, po bid via gavage administered for 2 weeks and measured after 28 days by automated chemistry analyzer. It is filed as functional, organism-based. Conditions: Mesocricetus auratus.

The subject of series [9] is Syrian golden hamster. As to the kind of experiment: Antidyslipidemic activity against HFHC diet-induced hyperlipidemia in Golden Syrian hamster model assessed as decrease in ratio of LDL-C to HDL-C at 100 mg/kg, po bid via gavage administered for 2 weeks and measured after 28 days by automated chemistry analyzer. It is filed as functional, organism-based. Conditions: Mesocricetus auratus.

Series [10] relates to Syrian golden hamster. As to the kind of experiment: Antidyslipidemic activity against HFHC diet-induced hyperlipidemia in Golden Syrian hamster model assessed as decrease in triglycerides at 100 mg/kg, po bid via gavage administered for 2 weeks and measured after 28 days by automated chemistry analyzer. It is filed as functional, organism-based. Conditions: Mesocricetus auratus.

Series [11] relates to Syrian golden hamster. As to the kind of experiment: Antidyslipidemic activity against HFHC diet-induced hyperlipidemia in Golden Syrian hamster model assessed as decrease in high density lipoprotein cholesterol at 100 mg/kg, po bid via gavage administered for 2 weeks and measured after 28 days by automated chemistry analyzer. It is filed as functional, organism-based. The note with it: Mesocricetus auratus.

In series [12] the test system is HepG2. As to the kind of experiment: Activation of AMPK in human HepG2 cells assessed as induction of AMPK phosphorylation at alpha subunit at 20 uM measured after 1 hr by Western blot analysis. It is filed as cell-based. The note with it: filed as activator.
The subject of series [13] is HepG2. As to the kind of experiment: Activation of AMPK in human HepG2 cells assessed as induction of ACC phosphorylation at Ser79 residue at 20 uM measured after 1 hr by Western blot analysis. It is filed as cell-based. The note with it: filed as activator.
A short description of series [14]: Inhibition of gluconeogenesis in C57/BL6 mouse primary hepatocytes at 20 uM measured after 6 hrs relative to control. The note with it: C57/BL6, Hepatocyte. It is filed as functional.
The test system of series [15] is HepG2. As to the kind of experiment: Activation of AMPK in human HepG2 cells assessed as induction of AMPK phosphorylation of Thr-172 residue at alpha subunit measured after 1 hr by Western blot analysis. It is filed as cell-based. Conditions: filed as activator, dose 2.5-20 µM.
Series [16] deals with HepG2. As to the kind of experiment: Activation of AMPK in human HepG2 cells assessed as induction of ACC phosphorylation at Ser79 residue measured after 1 hr by Western blot analysis. It is filed as cell-based. The note with it: filed as activator, dose 2.5-20 µM.
Series [17] deals with Hepatocyte. As to the kind of experiment: Cytotoxicity against C57/BL6 mouse primary hepatocytes at 5 to 40 uM measured after 24 hrs by sulforhodamine B assay. The note with it: dose 5-40 µM. It is filed as cell-based.

Active and inactive are the calls of the source. The calls are words filed in the database; no cut-off is given here.

For the compound `CC(C)(O)[C@@H]1CC[C@](C)([C@H]2CC[C@]3(C)[C@@H]2[C@H](O)C[C@@H]2[C@@]4(C)C[C@@H](O)[C@H](O)C(C)(C)[C@@H]4CC[C@]23C)O1`, the EC50 in [1] (read-out: EC50) was 8.8 µM. Further, in [2] (filed as activator), the fold change (FC) was determined as 3.6.

Take `CCNCCC[C@](C)(O)[C@H]1CC[C@]2(C)[C@@H]1[C@H](O)C[C@@H]1[C@@]3(C)C[C@@H](O)[C@H](O)C(C)(C)[C@@H]3CC[C@]12C`: the EC50 in [1] (read-out: EC50) was determined as 1.8 µM. Further, the fold change (FC) in [2] (filed as activator) worked out at 2.3.

`COc1ccc(NCCC[C@](C)(O)[C@H]2CC[C@]3(C)[C@@H]2[C@H](O)C[C@@H]2[C@@]4(C)C[C@@H](O)[C@H](O)C(C)(C)[C@@H]4CC[C@]23C)cc1`: in [1] (read-out: EC50), the EC50 was 3.8 µM. Moreover, in series [2] (filed as activator), the fold change (FC) amounted to 2.9.

Regarding `COc1ccc(CNCCC[C@](C)(O)[C@H]2CC[C@]3(C)[C@@H]2[C@H](O)C[C@@H]2[C@@]4(C)C[C@@H](O)[C@H](O)C(C)(C)[C@@H]4CC[C@]23C)cc1OC`, the EC50 in series [1] (read-out: EC50) amounted to 1.1 µM. Moreover, the fold change (FC) in series [2] (filed as activator) turned out to be 2.8.

On to `CNCCC[C@](C)(O)[C@H]1CC[C@]2(C)[C@@H]1[C@H](O)C[C@@H]1[C@@]3(C)C[C@@H](O)[C@H](O)C(C)(C)[C@@H]3CC[C@]12C`, for which, in [1] (read-out: EC50), the EC50 turned out to be 1.9 µM. The fold change (FC) in [2] (filed as activator) is 2.6.

Consider `CC(C)(C)NCCC[C@](C)(O)[C@H]1CC[C@]2(C)[C@@H]1[C@H](O)C[C@@H]1[C@@]3(C)C[C@@H](O)[C@H](O)C(C)(C)[C@@H]3CC[C@]12C`, for which the EC50 in series [1] (read-out: EC50) worked out at 4.9 µM. The fold change (FC) in [2] (filed as activator) is 2.1.

Regarding `CC1(C)[C@@H](O)[C@H](O)C[C@]2(C)[C@H]3C[C@@H](O)[C@@H]4[C@@H]([C@@](C)(O)CCCNCc5ccccn5)CC[C@@]4(C)[C@]3(C)CC[C@@H]12`, the EC50 in [1] (read-out: EC50) was determined as 0.8 µM. Moreover, the fold change (FC) in [2] (filed as activator) was found to be 3. Moreover, the result in series [3], in [4] and in series [5] was Active. The “inhibition (INH)” value in series [6] came out at 20%.

Regarding `CC(C)(O)[C@H]1CC[C@](C)([C@H]2CC[C@]3(C)[C@@H]2[C@H](O)C[C@@H]2[C@@]4(C)C[C@@H](O)[C@H](O)C(C)(C)[C@@H]4CC[C@]23C)O1`, in [1] (read-out: EC50), the EC50 was 5.5 µM. The fold change (FC) in [2] (filed as activator) stood at 3.9.

As for `COc1ccc(CNCCC[C@](C)(O)[C@H]2CC[C@]3(C)[C@@H]2[C@H](O)C[C@@H]2[C@@]4(C)C[C@@H](O)[C@H](O)C(C)(C)[C@@H]4CC[C@]23C)cc1`, the EC50 in series [1] (read-out: EC50) is 1 µM. For the same compound, in [2] (filed as activator), the fold change (FC) is 2.7.

Turning to `CC(C)=CCC[C@](C)(O)[C@H]1CC[C@]2(C)[C@@H]1[C@H](O)C[C@@H]1[C@@]3(C)C[C@@H](O)[C@H](O)C(C)(C)[C@@H]3CC[C@]12C`, the outcome in series [7], in [8], in [9], in series [12] and in series [13] was Active. For the same compound, the outcome in series [10] and in series [11] was inactive. Moreover, in series [1] (read-out: EC50), the EC50 amounted to 5.1 µM. Also, the fold change (FC) in series [2] (filed as activator) amounted to 2.4. In series [14], this compound showed an inhibition at 20 µM of 25%.

Turning to `C[C@H](NCCC[C@](C)(O)[C@H]1CC[C@]2(C)[C@@H]1[C@H](O)C[C@@H]1[C@@]3(C)C[C@@H](O)[C@H](O)C(C)(C)[C@@H]3CC[C@]12C)c1ccccc1`, the EC50 in series [1] (read-out: EC50) turned out to be 1.4 µM. The fold change (FC) in series [2] (filed as activator) worked out at 2.8.

As for `CC1(C)[C@@H](O)[C@H](O)C[C@]2(C)[C@H]3C[C@@H](O)[C@@H]4[C@@H]([C@@](C)(O)CCCNCCc5ccccc5)CC[C@@]4(C)[C@]3(C)CC[C@@H]12`, the EC50 in series [1] (read-out: EC50) stood at 1.2 µM. Besides, the fold change (FC) in series [2] (filed as activator) is 2.

As for `CC1(C)[C@@H](O)[C@H](O)C[C@]2(C)[C@H]3C[C@@H](O)[C@@H]4[C@@H]([C@@](C)(O)CCCNCc5ccccc5)CC[C@@]4(C)[C@]3(C)CC[C@@H]12`, the EC50 in series [1] (read-out: EC50) worked out at 5.1 µM. The fold change (FC) in [2] (filed as activator) worked out at 3.4.

As for `Nc1ncnc2c1ncn2[C@@H]1O[C@H](COP(=O)(O)O)[C@@H](O)[C@H]1O` [ADENOSINE PHOSPHATE], the EC50 in series [1] (read-out: EC50) was 1.6 µM. The fold change (FC) in series [2] (filed as activator) came out at 3.2.

Turning to `N#Cc1c(O)c2c(-c3ccc(-c4ccccc4O)cc3)csc2[nH]c1=O`, in [1] (read-out: EC50), the concentration for a half-maximal effect (EC50) came to 0.0096 µM. Also, the fold change (FC) in series [2] (filed as activator) came out at 4.2.

As to `CC1(C)[C@@H](O)[C@H](O)C[C@]2(C)[C@H]3C[C@@H](O)[C@@H]4[C@@H]([C@@](C)(O)CCCNCc5cccnc5)CC[C@@]4(C)[C@]3(C)CC[C@@H]12`, the EC50 in [1] (read-out: EC50) is 1 µM. For the same compound, the fold change (FC) in [2] (filed as activator) came to 2.8. For the same compound, the result in [3], in series [4] and in series [5] was Active. Moreover, the “inhibition (INH)” value in [6] is listed as 20%.

As to `CC(C)CCC[C@](C)(O)[C@H]1CC[C@]2(C)[C@@H]1[C@H](O)C[C@@H]1[C@@]3(C)C[C@@H](O)[C@H](O)C(C)(C)[C@@H]3CC[C@]12C`, the EC50 entry in series [1] is “Not Active”. Further, the fold change (FC) in [2] is under 1.5.

Regarding `CCCNCCC[C@](C)(O)[C@H]1CC[C@]2(C)[C@@H]1[C@H](O)C[C@@H]1[C@@]3(C)C[C@@H](O)[C@H](O)C(C)(C)[C@@H]3CC[C@]12C`, the EC50 in [1] (read-out: EC50) is 1.9 µM. The fold change (FC) in series [2] (filed as activator) was 2.9.

In the case of `CC1(C)[C@@H](O)[C@H](O)C[C@]2(C)[C@H]3C[C@@H](O)[C@@H]4[C@@H]([C@@](C)(O)CCCNCCCc5ccccc5)CC[C@@]4(C)[C@]3(C)CC[C@@H]12`, the half-maximal effective concentration (EC50) in series [1] (read-out: EC50) came to 0.8 µM. Besides, in [2] (filed as activator), the fold change (FC) was 2.7. The Activity entry is “Dose-dependent effect” in series [15], “Dose-dependent effect” in [16] and “Non-Toxic” in series [17]. In addition, the result in series [5] was Active. Moreover, in series [14], testing at 20 µM gave an inhibition of 80%.

`CC1(C)[C@@H](O)[C@H](O)C[C@]2(C)[C@H]3C[C@@H](O)[C@@H]4[C@@H]([C@@](C)(O)CCCNCc5ccc(F)cc5)CC[C@@]4(C)[C@]3(C)CC[C@@H]12`: the EC50 in series [1] (read-out: EC50) came to 0.3 µM. Further, the fold change (FC) in series [2] (filed as activator) is 3.2. Moreover, the values for the Activity result in series [15], in series [16] and in series [17] were “Dose-dependent effect”, “Dose-dependent effect” and “Non-Toxic”, respectively. In addition, the result in series [5] was Active. Besides, testing at 20 µM in series [14] gave an inhibition of 80%.

For the compound `CC(C)NCCC[C@](C)(O)[C@H]1CC[C@]2(C)[C@@H]1[C@H](O)C[C@@H]1[C@@]3(C)C[C@@H](O)[C@H](O)C(C)(C)[C@@H]3CC[C@]12C`, the EC50 in series [1] (read-out: EC50) is 1.2 µM. Further, the fold change (FC) in series [2] (filed as activator) amounted to 2.

Consider `CC1(C)[C@@H](O)[C@H](O)C[C@]2(C)[C@H]3C[C@@H](O)[C@@H]4[C@@H]([C@@](C)(O)CCCNCc5ccncc5)CC[C@@]4(C)[C@]3(C)CC[C@@H]12`, for which the EC50 in [1] (read-out: EC50) came to 1.2 µM. Also, the fold change (FC) in series [2] (filed as activator) came to 4.1.
